In patent US10343991B2, “C5, C6 substituted and/or fused oxindoles as anti-cancer agents and process for preparation thereof” (Council of Scientific & Industrial Research, priority 2016, dated 2019):

Tests used:
THP1 cells [1] = test: Trypan blue assay, cell viability; format: cell-based; settings: Homo sapiens, THP-1, 48 h, average of three experiments
Description: (§1) In order to determine the anticancer potency, the synthesized oxindole derivatives were evaluated for anti-cancer activity various different human cancer cell lines, Leukemic Cancer (THP1), human breast cancer (MDA-MB-231 and MCF-7), human cervix carcinoma cells (HeLa), prostate cancer (DU-145) cellS by using standard Trypan blue and SRB assays. The preliminary anticancer activity for all the synthesized compounds was done at 10 μM concentration and cell inhibition was determined. […] The experiment was repeated thrice and the average values were taken.
The assay was carried out in a 24 well flat-bottomed microtiter tissue culture plate. THP1 cells were seeded in the plates with a density of 4×10^4 cells/well (counted by tryphan blue exclusion dye method). Compounds were added to obtain a concentration of 10 μM. Sunitinib was used as positive control. Plates were incubated for 48 h at 37° C. in a humidified incubator with 5% CO2. At the end of the treatments, cells (THP1) were resuspended in 0.4% trypan blue and percent cell viability was counted using countess cell chamber (Life Technologies).

MDA-MB-231 cells = test: SRB assay, cell viability; format: cell-based; settings: Homo sapiens, 48 h, average of three experiments
Description: as §1
(§2) The assay was carried out in a 24 well flat-bottomed microtiter tissue culture plate. Cells were seeded in the plates with a density of 4×10^4 cells/well (counted by tryphan blue exclusion dye method). After 24 hours media was replaced with fresh media and then compounds were added to obtain a concentrations of 10 μM. Sunitinib was used as positive control. Plates were incubated for 48 h at 37° C. in a humidified incubator with 5% CO2. After 48 hours without removing the cell culture supernatant, 500 μl of cold 10% (wt/vol) TCA was added to each well, and the plates were incubated at 4° C. for 1 h. The plates were washed for four times with water then rinsed with water several times to remove TCA, serum, proteins and excess water was removed using paper towels and air dried. 100 μl of 0.4% (wt/vol in 1% acetic acid) SRB solution was added to each well. Plates were left at room temperature for 30 min and then the plates were quickly rinsed for four times with 1% (vol/vol) acetic acid to remove unbound dye were and then air dried until no moisture was visible. 100 μl of 10 mM Tris base solution (pH 10.5) was added to each well and shake for 5 min to solubilize the protein-bound dye. Optical density was measured at 564 nm in a micro plate reader.

MCF-7 cells = test: SRB assay, cell viability; format: cell-based; settings: Homo sapiens, MCF7, 48 h, average of three experiments
Description: as §1, §2

DU-145 cells = test: SRB assay, cell viability; format: cell-based; settings: Homo sapiens, 48 h, average of three experiments, read-out: DU145 Cell Viability at 10 μM
Description: as §1, §2

HeLa cells = test: SRB assay, cell viability; format: cell-based; settings: Homo sapiens, 48 h, average of three experiments
Description: as §1, §2

THP1 cells [2] = format: cell-based, human; settings: THP-1 cells, 10 μM, 24 h; untreated cells 68.3%
Description: To understand the anticancer activity mechanism of the synthesized oxindole derivatives, we analysed the cell cycle alteration phase distribution of the cells by treating THP1 cells with oxindole derivatives at 10 μM, for 24 h and analyzed by flow cytometry. Treatment of THP-1 cells with compounds 2b, 3d, 3e, 3g, 3h, 3i, 3j and 3k caused an accumulation of 98.5%, 94.3%, 96.7%, 97%, 98%, 83%, 93.5%, 98.1% cells in the G0/G1 phase respectively as compared to 68.3% in untreated cells and 99.5% in Sunitinib treated cells. […] (Fig. x and Table .y).
The THP1 cells were treated with the active compounds at […] and incubated for about 24 h. The cells were fixed in ice cold ethanol solvent at 4° C. for about 30 minutes. The ethanol was removed and cells were treated with 1 mL of DNA staining solution (2 mg of RNase and 0.2 mg of propidium iodide (PI)) for 30 minutes. The DNA content was measured by flow cytometry (BD FACS C anto II). Results were analysed using FCS express 4 plus software.

[3] = system: VEGF tyrosin kinase (VEGFR); test: VEGFR activity, phosphotyrosine (PY) cell-based ELISA; settings: 10 μM, 60 min pretreatment, VEGF stimulation
Description: Briefly, cells at 60-75% confluence were placed in serum-free medium for 18 h to reduce the background of phosphorylation. Cells were then pretreated for 60 min with 2b, 3d, 3e, 3g, 3h, 3i, 3j and 3k compounds at 10 μM concentration followed by an optimized dose of purified growth factor (VEGF). The reaction was stopped, and cells were permeabilized by quickly removing the media from the cells and adding ice-cold Tris-buffered saline (TBS) containing 0.05% triton X-100, protease inhibitor cocktail, and tyrosine phosphatase inhibitor cocktail (both from Sigma Chemical). The TBS solution was then removed, and cells were fixed to the plate by heat and further incubation in 70% ethanol. Cells were further exposed to block (TBS with 1% BSA) and washed, and then a horseradish peroxidase (HRP)-conjugated phosphotyrosine antibody was added. The antibody was removed; cells were washed again and exposed to an enhanced luminol ELISA substrate, and light emission was measured using a plate reader. The known RTK-specific kinase inhibitor (Sunitinib) was used as positive control for kinase inhibition.

Row | Compound | viability at 10 µM (THP1 cells [1]) [%] | melting point [°C] | viability at 10 µM (MDA-MB-231 cells) [%] | viability at 10 µM (MCF-7 cells) [%] | viability at 10 µM (DU-145 cells) [%] | viability at 10 µM (HeLa cells) [%] | accumulation of cells in the G0/G1 phase (THP1 cells [2]) [%] | inhibitory activity of VEGF tyrosin kinase activity [3]
1 | O=C1Cc2cc(C(C#Cc3ccccc3)c3ccccc3)c(O)cc2N1 (stereo not shown) [Compound 2a, 5-(1,3-Diphenylprop-2-yn-1-yl)-6-hydroxyindolin-2-one] | 34.5 | 195 to 196 | 71.3 | 39.7 | 41.7 | 36.6 | – | –
2 | COc1cccc(C(C#CCOCc2ccccc2)c2cc3c(cc2O)NC(=O)C3)c1OC (stereo not shown) [Compound 2b, 5-(4-(Benzyloxy)-1-(2,3-dimethoxyphenyl)but-2-ynyl)-6-hydroxyindolin-2-one] | 48.5 | 177 to 179 | 42.8 | 39.8 | 51.2 | 40.4 | 98.5 | inhibitory activity
3 | O=C1Cc2cc3c(-c4ccccc4)c(Cc4ccccc4)oc3cc2N1 [Compound 3a, 2-Benzyl-3-phenyl-5H-furo[3,2-f]indol-6(7H)-one] | 53.6 | 196 to 198 | 53.8 | 51.1 | 21.7 | 27.6 | – | –
4 | COc1cccc(-c2c(CCOCc3ccccc3)oc3cc4c(cc23)CC(=O)N4)c1OC [Compound 3b, 2-(2-(Benzyloxy)ethyl)-3-(2,3-dimethoxyphenyl)-5H-furo [3,2-f] indol-6(7H)-one] | 75.5 | 120 to 122 | 72.5 | 49.3 | 69.2 | 40.5 | – | –
5 | Cc1cc(C)c(/C=C2\C(=O)Nc3cc(O)c(C(C#Cc4ccccc4)c4ccccc4)cc32)[nH]1 (stereo not shown) [Compound 3c, (Z)-3-((3,5-dimethyl-1H-pyrrol-2-yl)methylene)-5-(1,3-diphenylprop-2-yn-1-yl)-6-hydroxyindolin-2-one] | 125 | 173 to 179 | 74.5 | 49.9 | 81.3 | 78.2 | – | –
6 | Cc1ccsc1/C=C1\C(=O)Nc2cc(O)c(C(C#Cc3ccccc3)c3ccccc3)cc21 (stereo not shown) [Compound 3d, (Z)-5-(1,3-diphenylprop-2-yn-1-yl)-6-hydroxy-3-((3-methylthiophen-2-yl)methylene)indolin-2-one] | 33.3 | 182 to 185 | 35.9 | 30.7 | 45.5 | 71.3 | 94.3 | inhibitory activity
7 | CN(C)c1ccc(/C=C2\C(=O)Nc3cc(O)c(C(C#Cc4ccccc4)c4ccccc4)cc32)c2ccccc12 (stereo not shown) [Compound 3e, (Z)-3-((4-(dimethylamino)naphthalen-1-yl)methylene)-5-(1,3-diphenylprop-2-yn-1-yl)-6-hydroxyindolin-2-one] | 125 | 188 to 192 | 85.9 | 78.2 | 48.2 | 153 | 96.7 | inhibitory activity
8 | COc1cccc(C(C#CCOCc2ccccc2)c2cc3c(cc2O)NC(=O)/C3=C\c2[nH]c(C)cc2C)c1OC (stereo not shown) [Compound 3f] | 30.2 | 181 to 183 | 37.7 | 33.1 | 62.1 | 39.4 | – | –
9 | Cc1ccc(S(=O)(=O)n2cc(C(C#Cc3ccccc3)c3cc4c(cc3O)NC(=O)/C4=C\c3[nH]c(C)cc3C)c3ccccc32)cc1 (stereo not shown) [Compound 3g, (Z)-3-((3,5-dimethyl-1H-pyrrol-2-yl)methylene)-6-hydroxy-5-(3-phenyl-1-(1-tosyl-1H-indol-3-yl)prop-2-yn-1-yl)indolin-2-one] | 104 | 185 to 186 | 63.8 | 91.5 | 94.3 | 88.3 | 97 | inhibitory activity
10 | Cc1cc(C)c(/C=C2\C(=O)Nc3cc4oc(Cc5ccccc5)c(-c5ccccc5)c4cc32)[nH]1 [Compound 3h, (Z)-2-benzyl-5-((3,5-dimethyl-1H-pyrrol-2-yl)methylene)-3-phenyl-5H-furo[3,2-f]indol-6(7H)-one] | 36.2 | 186 to 188 | 41.3 | 40.5 | 58.6 | 40.3 | 98 | inhibitory activity
11 | COc1cccc(-c2c(COCc3ccccc3)oc3cc4c(cc23)/C(=C/c2[nH]c(C)cc2C)C(=O)N4)c1OC [Compound 3k, (Z)-2-((benzyloxy)methyl)-3-(2,3-dimethoxyphenyl)-5-((3,5-dimethyl-1H-pyrrol-2-yl)methylene)-5H-furo[3,2-f]indol-6(7H)-one] | 80.5 | – | 109 | 43.1 | 62.7 | 38.9 | 98.1 | inhibitory activity
12 | COc1cccc(-c2c(COCc3ccccc3)oc3cc4c(cc23)/C(=C/c2sccc2C)C(=O)N4)c1OC [Compound 3l, (Z)-2-((benzyloxy)methyl)-3-(2,3-dimethoxyphenyl)-5-((3-methylthiophen-2-yl)methylene)-5H-furo[3,2-f]indol-6(7H)-one] | 106 | – | 111 | 79 | 49.7 | 52 | – | –
13 | Cc1ccc(S(=O)(=O)n2cc(-c3c(Cc4ccccc4)oc4cc5c(cc34)/C(=C/c3[nH]c(C)cc3C)C(=O)N5)c3ccccc32)cc1 [Compound 3m, (Z)-2-benzyl-5-((3,5-dimethyl-1H-pyrrol-2-yl)methylene)-3-(1-tosyl-1H-indol-3-yl)-5H-furo[3,2-f]indol-6(7H)-one] | 68.2 | 174 to 176 | 75.5 | 71.4 | 91.7 | 87.6 | – | –
14 | CCN(CC)CCNC(=O)c1c(C)[nH]c(/C=C2\C(=O)Nc3ccc(F)cc32)c1C [SUNT, Sunitinib, reference compound] | 35.2 | – | 39.5 | 34.3 | 35 | 37.1 | 99.5 | –
